Measurements as given in patent publication US20210198204A1, “PRODRUGS OF KALLIKREIN INHIBITORS” (BioCryst Pharmaceuticals, Inc., priority 2016, published 2021).

Experiment: Plasma pharmacokinetics of the parent compound after a single oral dose of prodrug
Format: in vivo
Conditions: single oral dose 10 mg/kg, fasted male Sprague Dawley rats; plasma analyzed for the parent compound; study duration 8 h
Procedure: Plasma pharmacokinetics of compounds was determined using three male Sprague Dawley rats following a single oral dose administration. All animals were placed in a rat metabolic cage, isolated, and fasted approximately 15 hours prior to dosing. Identifying markers were placed on each animal. Each animal was weighed prior to dose administration. Animals were administered orally with a solution formulation of test compound either in water or a combination of water/propylene glycol, at a dose of 10 mg/kg. Gavage needles were attached to syringes and filled with appropriate amount of test article to be dosed. Blood samples (approximately 500 μL) were collected from three rats at pre-dose (time 0), 0.5, 1, 2, 4, 8, 12 and 24 hr, respectively, depending on study duration. Samples were collected into labeled micro centrifuge tubes containing (heparin solution) as an anticoagulant. Plasma was immediately harvested from the blood by centrifugation at 14,000 rpm for 3 min at 4° C., and stored below −70° C. until bioanalysis. Individual plasma samples were analyzed for the parent compound, 3-[2-(4-carbamimidoyl-phenylcarbamoyl)-5-methoxy-4-vinyl-phenyl]-6-(cyclopropylmethyl-carbamoyl)-pyridine-2-carboxylic acid. As shown in Table-1, the test compounds yielded varying degrees of exposure to the parent compound. The test compounds generally provided for improved bioavailability of the parent compound as compared to dosing of the parent compound in aqueous solutions.

AUC0-last hour (area under the curve) | Structure (SMILES)
A (A = 0-1,000 ng/mL) | C=Cc1cc(C(=O)Nc2ccc(C(=N)N)cc2)c(-c2ccc(C(=O)NCC3CC3)nc2C(=O)OC[C@H](C)OC(=O)[C@@H](N)C(C)C)cc1OC (single isomer, unassigned) [Compound 18f]
A (A = 0-1,000 ng/mL) | C=Cc1cc(C(=O)Nc2ccc(C(=N)N)cc2)c(-c2ccc(C(=O)NCC3CC3)nc2C(=O)OC[C@@H](C)OC(=O)[C@@H](N)C(C)C)cc1OC (single isomer, unassigned) [Compound 18g]
A (A = 0-1,000 ng/mL) | C=Cc1cc(C(=O)Nc2ccc(C(=N)N)cc2)c(-c2ccc(C(=O)NCC3CC3)nc2C(=O)OC)cc1OC.CS(=O)(=O)O [Compound 1o, Methyl 3-[2-(4-carbamimidoylphenylcarbamoyl)-5-methoxy-4-vinylphenyl]-6-(cyclopropylmethylcarbamoyl)pyridine-2-carboxylate methanesulfonate]
A (A = 0-1,000 ng/mL) | C=Cc1cc(C(=O)Nc2ccc(C(=N)NC(=O)OCCCCCC)cc2)c(-c2ccc(C(=O)NCC3CC3)nc2C(=O)OCCN2CCOCC2)cc1OC.Cl [Compound 6a, 2-morpholinoethyl 6-((cyclopropylmethyl)carbamoyl)-3-(2-((4-(N-((hexyloxy)carbonyl)carbamimidoyl)phenyl)carbamoyl)-5-methoxy-4-vinylphenyl)picolinate hydrochloride]
A (A = 0-1,000 ng/mL) | C=Cc1cc(C(=O)Nc2ccc(C(N)=NO)cc2)c(-c2ccc(C(=O)NCC3CC3)nc2C(=O)O)cc1OC [Compound 9c, 6-((cyclopropylmethyl)carbamoyl)-3-(2-((4-(N′-hydroxycarbamimidoyl)phenyl)carbamoyl)-5-methoxy-4-vinylphenyl)picolinic acid]
A (A = 0-1,000 ng/mL) | C=Cc1cc(C(=O)Nc2ccc(C(=N)N)cc2)c(-c2ccc(C(=O)NCC3CC3)nc2C(=O)OCC(C)OC(=O)[C@@H](N)C(C)C)cc1OC (stereo partly drawn) [Compound 18e, 2-(((S)-2-amino-3-methylbutanoyl)oxy)propyl 3-(2-((4-carbamimidoylphenyl)carbamoyl)-5-methoxy-4-vinylphenyl)-6-((cyclopropylmethyl)carbamoyl)picolinate]
A (A = 0-1,000 ng/mL) | C=Cc1cc(C(=O)Nc2ccc(C(=N)NC(=O)OC(C)C)cc2)c(-c2ccc(C(=O)NCC3CC3)nc2C(=O)OC)cc1OC [Compound 20b, methyl 6-((cyclopropylmethyl)carbamoyl)-3-(2-((4-(N-(isopropoxycarbonyl)carbamimidoyl)phenyl)carbamoyl)-5-methoxy-4-vinylphenyl)picolinate]
A (A = 0-1,000 ng/mL) | C=Cc1cc(C(=O)Nc2ccc(C(=N)N)cc2)c(-c2ccc(C(=O)NCC3CC3)nc2C(=O)OC(C)OC(=O)C(C)(C)C)cc1OC (stereo not drawn) [Compound 22d, 1-(pivaloyloxy)ethyl 3-(2-((4-carbamimidoylphenyl)carbamoyl)-5-methoxy-4-vinylphenyl)-6-((cyclopropylmethyl)carbamoyl)picolinate]
A (A = 0-1,000 ng/mL) | C=Cc1cc(C(=O)Nc2ccc(C(=N)NC(=O)OCCCCCC)cc2)c(-c2ccc(C(=O)NCC3CC3)nc2C(=O)O)cc1OC [Compound 24c, 6-((cyclopropylmethyl)carbamoyl)-3-(2-((4-(N-((hexyloxy)carbonyl)carbamimidoyl)phenyl)carbamoyl)-5-methoxy-4-vinylphenyl)picolinic acid]

Structure (SMILES) | AUC0-last hour (area under the curve)
C=Cc1cc(C(=O)Nc2ccc(C(=N)N)cc2)c(-c2ccc(C(=O)NCC3CC3)nc2C(=O)O)cc1OC [Compound 23e, 3-(2-((4-carbamimidoylphenyl)carbamoyl)-5-methoxy-4-vinylphenyl)-6-((cyclopropylmethyl)carbamoyl)picolinic acid] | B (B = 1,001-10,000 ng/mL)

Same assay, conditions: single oral dose 10 mg/kg, fasted male Sprague Dawley rats; plasma analyzed for the parent compound; study duration 12 h

AUC0-last hour (area under the curve) | Structure (SMILES)
A (A = 0-1,000 ng/mL) | C=Cc1cc(C(=O)Nc2ccc(C(=N)N)cc2)c(-c2ccc(C(=O)NCC3CC3)nc2C(=O)OCCN2CCOCC2)cc1OC.Cl [Compound 2d, 2-morpholinoethyl 3-(2-((4-carbamimidoylphenyl)carbamoyl)-5-methoxy-4-vinylphenyl)-6-((cyclopropylmethyl)carbamoyl)picolinate hydrochloride]
B (B = 1,001-10,000 ng/mL) | C=Cc1cc(C(=O)Nc2ccc(C(=N)N)cc2)c(-c2ccc(C(=O)NCC3CC3)nc2C(=O)OCOC(=O)[C@@H](N)C(C)C)cc1OC.O=C(O)C(F)(F)F [Compound 10e, (S)-((2-amino-3-methylbutanoyl)oxy)methyl 3-(2-((4-carbamimidoylphenyl)carbamoyl)-5-methoxy-4-vinylphenyl)-6-((cyclopropylmethyl)carbamoyl)picolinate trifluoroacetate]
A (A = 0-1,000 ng/mL) | C=Cc1cc(C(=O)Nc2ccc(C(=N)N)cc2)c(-c2ccc(C(=O)NCC3CC3)nc2C(=O)OCOC(=O)OC(C)C)cc1OC [Compound 14d, ((isopropoxycarbonyl)oxy)methyl 3-(2-((4-carbamimidoylphenyl)carbamoyl)-5-methoxy-4-vinylphenyl)-6-((cyclopropylmethyl)carbamoyl)picolinate]
A (A = 0-1,000 ng/mL) | C=Cc1cc(C(=O)Nc2ccc(C(=N)N)cc2)c(-c2ccc(C(=O)NCC3CC3)nc2C(=O)OCOC(=O)C(C)(C)C)cc1OC [Compound 15d, (pivaloyloxy)methyl 3-(2-((4-carbamimidoylphenyl)carbamoyl)-5-methoxy-4-vinylphenyl)-6-((cyclopropylmethyl)carbamoyl)picolinate]
A (A = 0-1,000 ng/mL) | C=Cc1cc(C(=O)Nc2ccc(C(=N)N)cc2)c(-c2ccc(C(=O)NCC3CC3)nc2C(=O)OCc2oc(=O)oc2C)cc1OC [Compound 19d, (5-methyl-2-oxo-1,3-dioxol-4-yl)methyl 3-(2-((4-carbamimidoylphenyl)carbamoyl)-5-methoxy-4-vinylphenyl)-6-((cyclopropylmethyl)carbamoyl)picolinate]
B (B = 1,001-10,000 ng/mL) | C=Cc1cc(C(=O)Nc2ccc(C(=N)N)cc2)c(-c2ccc(C(=O)NCC3CC3)nc2C(=O)OC(C)OC(=O)C(C)C)cc1OC (stereo not drawn) [Compound 29d, 1-(isobutyryloxy)ethyl 3-(2-(4-carbamimidoylphenylcarbamoyl)-5-methoxy-4-vinylphenyl)-6-(cyclopropylmethylcarbamoyl)picolinate]
B (B = 1,001-10,000 ng/mL) | C=Cc1cc(C(=O)Nc2ccc(C(=N)NC(=O)OCCCCCC)cc2)c(-c2ccc(C(=O)NCC3CC3)nc2C(=O)OCOC(=O)[C@@H](N)C(C)C)cc1OC [Compound 31b, (S)-((2-amino-3-methylbutanoyl)oxy)methyl 6-((cyclopropylmethyl)carbamoyl)-3-(2-((4-(N-((hexyloxy)carbonyl)carbamimidoyl)phenyl)carbamoyl)-5-methoxy-4-vinylphenyl)picolinate]

Structure (SMILES) | AUC0-last hour (area under the curve)
C=Cc1cc(C(=O)Nc2ccc(C(=N)NC(=O)OC(C)OC(C)=O)cc2)c(-c2ccc(C(=O)NCC3CC3)nc2C(=O)O)cc1OC (stereo not drawn) [Compound 23f, 3-(2-((4-(N-((1-acetoxyethoxy)carbonyl)carbamimidoyl)phenyl)carbamoyl)-5-methoxy-4-vinylphenyl)-6-((cyclopropylmethyl)carbamoyl)picolinic acid] | B (B = 1,001-10,000 ng/mL)
